According to patent publication US20040022667A1 (priority 2001, published 2004):

What was measured:
[1] = 20° C.; cited from earlier work
anthrax spores = format: cell-based, Bacillus anthracis; conditions: ~50 ppm (approx. 50 mg/liter) pure ClO2 in water

| Compound | solubility per liter of water [1] | time to substantially destroy anthrax spores (anthrax spores) |
| --- | --- | --- |
| O=O [oxygen] | 9.2 mg |  |
| Chlorine dioxide |  | less than 1 min |
